Assay results taken from ChEMBL document CHEMBL4825686, “HTS-based discovery and optimization of novel positive allosteric modulators of the α7 nicotinic acetylcholine receptor” (Eur J Med Chem, 2021).
≈ marks a conversion by molar mass, not a printed value. Calls of active or inactive are those of the source. The calls are words filed in the database; no cut-off is given here.

How the values were obtained:
[1] = test system: Mus musculus; assay: Cognitive enhancing effect in scopolamine-induced amnesia NMRI mouse model assessed as increase in recognition index at 1 to 10 mg/kg, ip administered 30 mins prior to scopolamine injection by Y-maze test; type: functional, organism-based; conditions: dose 1-10 mg/kg
[2] = Kinetic solubility of compound; type: physicochemical; conditions: read-out: Kinetic_solubility
[3] = target: T1, Neuronal acetylcholine receptor subunit alpha-7 (Homo sapiens, UniProt P36544); assay: Positive allosteric modulator activity at human alpha7 nAChR expressed in Flp-In-HEK293 cells co-expressing RIC-3 assessed as potentiation of PNU282987-induced calcium influx measured after 10 mins by FLIPR assay; type: cell-based, Flp-In-293; conditions: read-out: EC50
T1 sequence (P36544 whole entry): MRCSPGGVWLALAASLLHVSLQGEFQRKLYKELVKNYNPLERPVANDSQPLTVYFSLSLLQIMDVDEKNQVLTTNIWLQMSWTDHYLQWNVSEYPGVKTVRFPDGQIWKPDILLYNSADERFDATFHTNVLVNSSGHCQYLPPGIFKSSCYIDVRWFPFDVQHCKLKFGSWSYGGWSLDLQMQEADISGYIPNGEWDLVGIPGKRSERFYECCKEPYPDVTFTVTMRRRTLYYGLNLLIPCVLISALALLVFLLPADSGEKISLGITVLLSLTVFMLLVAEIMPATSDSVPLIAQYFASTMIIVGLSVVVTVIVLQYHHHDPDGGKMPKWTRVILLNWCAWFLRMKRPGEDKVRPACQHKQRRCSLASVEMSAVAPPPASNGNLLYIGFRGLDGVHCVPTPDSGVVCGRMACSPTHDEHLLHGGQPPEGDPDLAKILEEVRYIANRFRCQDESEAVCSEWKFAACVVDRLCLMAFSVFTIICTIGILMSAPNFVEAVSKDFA

[4] = Metabolic stability in human liver microsomes assessed as intrinsic clearance at 1 uM measured per mg protein upto 40 mins; type: ADME, Microsome; conditions: read-out: CLH
[5] = Metabolic stability in Wistar rat liver microsomes assessed as intrinsic clearance at 1 uM measured per mg protein upto 40 mins; type: ADME, Microsome; conditions: read-out: CLH
[6] = Metabolic stability in NMRI mouse liver microsomes assessed as intrinsic clearance at 1 uM measured per mg protein upto 40 mins; type: ADME, Microsome; conditions: read-out: CLH
[7] = Drug uptake in NMRI mouse brain at 1 mg/kg, ip measured after 1 hr by HPLC-MS/MS analysis; type: ADME, organism-based; conditions: read-out: Ct
[8] = Drug uptake in NMRI mouse brain at 3 mg/kg, ip measured after 1 hr by HPLC-MS/MS analysis; type: ADME, organism-based; conditions: read-out: Ct
[9] = Drug uptake in NMRI mouse brain at 10 mg/kg, ip measured after 1 hr by HPLC-MS/MS analysis; type: ADME, organism-based; conditions: read-out: Ct
[10] = Plasma concentration in NMRI mouse at 1 mg/kg, ip measured after 1 hr by HPLC-MS/MS analysis; type: ADME, organism-based
[11] = Plasma concentration in NMRI mouse at 3 mg/kg, ip measured after 1 hr by HPLC-MS/MS analysis; type: ADME, organism-based
[12] = Plasma concentration in NMRI mouse at 10 mg/kg, ip measured after 1 hr by HPLC-MS/MS analysis; type: ADME, organism-based
[13] = Ratio of drug level in NMRI mouse brain to plasma at 1 mg/kg, ip measured after 1 hr by HPLC-MS/MS analysis; type: ADME, organism-based; conditions: read-out: BPR
[14] = Ratio of drug level in NMRI mouse brain to plasma at 3 mg/kg, ip measured after 1 hr by HPLC-MS/MS analysis; type: ADME, organism-based; conditions: read-out: BPR
[15] = Ratio of drug level in NMRI mouse brain to plasma at 10 mg/kg, ip measured after 1 hr by HPLC-MS/MS analysis; type: ADME, organism-based; conditions: read-out: BPR
[16] = target: T1, Neuronal acetylcholine receptor subunit alpha-7; assay: Positive allosteric modulator activity at human alpha7 nAChR expressed in Flp-In-HEK293 cells co-expressing RIC-3 assessed as potentiation of PNU282987-induced calcium influx at 10 uM measured after 10 mins by FLIPR assay; type: cell-based
[17] = target: T1, Neuronal acetylcholine receptor subunit alpha-7; assay: Positive allosteric modulator activity at human alpha7 nAChR expressed in Flp-In-HEK293 cells co-expressing RIC-3 assessed as potentiation of PNU282987-induced calcium influx at 1 uM measured after 10 mins by FLIPR assay; type: cell-based; conditions: Flp-In-293
[18] = Mutagenicity in Salmonella typhimurium TA100 in presence of rat liver S9 fraction by AMES test; type: toxicity, subcellular; conditions: salmonella enterica subsp. enterica serovar typhimurium
[19] = Mutagenicity in Salmonella typhimurium TA1535 in presence of rat liver S9 fraction by AMES test; type: toxicity, subcellular; conditions: salmonella enterica subsp. enterica serovar typhimurium
[20] = Mutagenicity in Salmonella typhimurium TA98 in presence of rat liver S9 fraction by AMES test; type: toxicity, subcellular; conditions: salmonella enterica subsp. enterica serovar typhimurium
[21] = Mutagenicity in Salmonella typhimurium TA98 in absence of rat liver S9 fraction by AMES test; type: toxicity; conditions: salmonella enterica subsp. enterica serovar typhimurium
[22] = Mutagenicity in Salmonella typhimurium TA100 in absence of rat liver S9 fraction by AMES test; type: toxicity; conditions: salmonella enterica subsp. enterica serovar typhimurium
[23] = Mutagenicity in Salmonella typhimurium TA1537 in presence of rat liver S9 fraction by AMES test; type: toxicity, subcellular; conditions: salmonella enterica subsp. enterica serovar typhimurium
[24] = Mutagenicity in Salmonella typhimurium TA1537 in absence of rat liver S9 fraction by AMES test; type: toxicity; conditions: salmonella enterica subsp. enterica serovar typhimurium
[25] = Mutagenicity in Escherichia coli WP2 uvrA in presence of rat liver S9 fraction by AMES test; type: toxicity, subcellular
[26] = Mutagenicity in Escherichia coli WP2 uvrA in absence of rat liver S9 fraction by AMES test; type: toxicity
[27] = Mutagenicity in Salmonella typhimurium TA1535 in absence of rat liver S9 fraction by AMES test; type: toxicity; conditions: salmonella enterica subsp. enterica serovar typhimurium
[28] = Ratio of drug level in Wistar rat brain to plasma at 10 mg/kg, ip measured after 35 mins by HPLC-MS/MS analysis; type: ADME, organism-based; conditions: read-out: BPR
[29] = Ratio of drug level in Wistar rat brain to plasma at 3 mg/kg, ip measured after 35 mins by HPLC-MS/MS analysis; type: ADME, organism-based; conditions: read-out: BPR
[30] = Ratio of drug level in Wistar rat brain to plasma at 1 mg/kg, ip measured after 35 mins by HPLC-MS/MS analysis; type: ADME, organism-based; conditions: read-out: BPR
[31] = Apparent permeability across apical to basolateral side in vinblastine-treated human Caco-2 cells expressing P-glycoprotein at 1 uM incubated for 120 mins by HPLC analysis; type: ADME
[32] = target: 5-hydroxytryptamine receptor 2B (Homo sapiens) (UniProt P41595); assay: Binding affinity to human recombinant 5-HT2B receptor assessed as displacement of radioligand at 10 uM by displacement binding assay
5-hydroxytryptamine receptor 2B (Homo sapiens), sequence (P41595 whole entry): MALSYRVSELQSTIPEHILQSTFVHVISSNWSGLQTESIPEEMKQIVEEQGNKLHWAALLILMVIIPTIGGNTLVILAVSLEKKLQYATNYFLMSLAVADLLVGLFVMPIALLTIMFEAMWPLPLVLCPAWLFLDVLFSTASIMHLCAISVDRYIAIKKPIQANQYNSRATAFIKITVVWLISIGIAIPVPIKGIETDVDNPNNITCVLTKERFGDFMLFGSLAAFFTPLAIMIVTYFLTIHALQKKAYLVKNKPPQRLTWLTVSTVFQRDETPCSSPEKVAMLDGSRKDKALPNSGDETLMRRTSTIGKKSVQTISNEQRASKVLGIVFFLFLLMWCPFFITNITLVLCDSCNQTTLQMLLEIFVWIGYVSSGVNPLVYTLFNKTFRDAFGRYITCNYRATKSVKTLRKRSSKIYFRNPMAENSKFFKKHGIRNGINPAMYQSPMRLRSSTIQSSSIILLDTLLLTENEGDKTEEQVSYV

[33] = test system: Rattus norvegicus; assay: Cognitive enhancing effect in Hannover Wistar rat assessed as increase in novel object recognition index at 1 to 10 mg/kg, po administered 30 mins prior to recognition trail by novel object recognition test; type: functional, organism-based; conditions: dose 1-10 mg/kg
[34] = Drug uptake in Wistar rat brain at 1 mg/kg, ip measured after 35 mins by HPLC-MS/MS analysis; type: ADME, organism-based; conditions: read-out: Ct
[35] = Drug uptake in Wistar rat brain at 3 mg/kg, ip measured after 35 mins by HPLC-MS/MS analysis; type: ADME, organism-based; conditions: read-out: Ct
[36] = Drug uptake in Wistar rat brain at 10 mg/kg, ip measured after 35 mins by HPLC-MS/MS analysis; type: ADME, organism-based; conditions: read-out: Ct
[37] = Plasma concentration in Wistar rat at 1 mg/kg, ip measured after 35 mins by HPLC-MS/MS analysis; type: ADME, organism-based
[38] = Plasma concentration in Wistar rat at 3 mg/kg, ip measured after 35 mins by HPLC-MS/MS analysis; type: ADME, organism-based
[39] = Plasma concentration in Wistar rat at 10 mg/kg, ip measured after 35 mins by HPLC-MS/MS analysis; type: ADME, organism-based
[40] = test system: Rattus norvegicus; assay: Reversal of scopolamine induced amnesia in Lister Hooded rat at 0.3 to 10 mg/kg, po administered 25 mins prior to scopolamine injection and measured after 20 mins by rodent touch screen visual discrimination test; type: functional, organism-based; conditions: dose 0.3-10 mg/kg
[41] = target: Sodium-dependent noradrenaline transporter (Homo sapiens) (UniProt P23975); assay: Displacement of [125I]RTI55 from human recombinant NET expressed in MDCK cells at 10 uM incubated for 3 hrs by radiometric scintillation counting analysis; type: cell-based
Sodium-dependent noradrenaline transporter (Homo sapiens), sequence (P23975 whole entry): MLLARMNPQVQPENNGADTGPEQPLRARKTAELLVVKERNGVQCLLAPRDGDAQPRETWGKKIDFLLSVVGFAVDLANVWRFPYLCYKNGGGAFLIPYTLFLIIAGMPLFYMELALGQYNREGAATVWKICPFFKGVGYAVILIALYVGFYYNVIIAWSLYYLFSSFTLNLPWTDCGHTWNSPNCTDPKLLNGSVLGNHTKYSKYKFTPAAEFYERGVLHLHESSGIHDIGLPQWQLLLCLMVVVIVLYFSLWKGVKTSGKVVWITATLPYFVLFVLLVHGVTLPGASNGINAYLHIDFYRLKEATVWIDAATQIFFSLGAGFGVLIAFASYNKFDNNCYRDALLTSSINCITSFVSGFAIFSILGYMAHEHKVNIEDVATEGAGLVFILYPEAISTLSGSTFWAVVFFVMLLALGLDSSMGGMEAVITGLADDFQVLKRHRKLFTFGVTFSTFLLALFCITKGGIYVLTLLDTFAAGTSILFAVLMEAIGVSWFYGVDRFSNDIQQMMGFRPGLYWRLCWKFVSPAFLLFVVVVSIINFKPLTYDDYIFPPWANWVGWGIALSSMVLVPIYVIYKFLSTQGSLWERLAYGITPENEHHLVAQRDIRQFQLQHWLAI

[42] = target: Sodium-dependent dopamine transporter (Homo sapiens) (UniProt Q01959); assay: Displacement of [125I]RTI55 from human recombinant DAT expressed in CHO-S cells at 10 uM incubated for 3 hrs by radiometric scintillation counting analysis; type: cell-based
Sodium-dependent dopamine transporter (Homo sapiens), sequence (Q01959 whole entry): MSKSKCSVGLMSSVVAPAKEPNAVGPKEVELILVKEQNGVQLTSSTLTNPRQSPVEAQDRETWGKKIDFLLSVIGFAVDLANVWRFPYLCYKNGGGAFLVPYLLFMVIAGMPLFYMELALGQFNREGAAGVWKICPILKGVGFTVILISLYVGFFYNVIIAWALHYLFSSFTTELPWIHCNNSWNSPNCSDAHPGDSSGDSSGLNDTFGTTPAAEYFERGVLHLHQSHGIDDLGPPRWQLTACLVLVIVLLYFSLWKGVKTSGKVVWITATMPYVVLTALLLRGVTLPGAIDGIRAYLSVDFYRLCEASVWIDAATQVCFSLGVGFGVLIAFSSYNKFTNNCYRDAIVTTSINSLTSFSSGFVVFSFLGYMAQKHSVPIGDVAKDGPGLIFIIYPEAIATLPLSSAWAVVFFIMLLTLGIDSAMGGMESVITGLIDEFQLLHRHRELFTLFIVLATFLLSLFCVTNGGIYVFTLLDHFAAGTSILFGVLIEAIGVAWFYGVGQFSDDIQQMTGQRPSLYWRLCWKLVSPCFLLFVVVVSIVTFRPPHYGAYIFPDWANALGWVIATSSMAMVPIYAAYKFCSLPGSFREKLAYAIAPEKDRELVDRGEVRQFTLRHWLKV

[43] = test system: Mus musculus; assay: Cognitive enhancing effect in ip dosed scopolamine-induced amnesia NMRI mouse model assessed as increase in recognition index administered 30 mins prior to scopolamine injection by Y-maze test; type: functional; conditions: 0.5 h, read-out: MED
[44] = test system: Rattus norvegicus; assay: Cognitive enhancing effect in po dosed Hannover Wistar rat assessed as increase in novel object recognition index administered 30 mins prior to recognition trail by novel object recognition test; type: functional; conditions: 0.5 h, read-out: MED
[45] = Flp-In-293, filed as positive allosteric modulator

## Cc1ccc(Oc2ccc(C(=O)C(=O)Nc3ccc4c(ccn4C)c3)cn2)cc1
[1]
  Activity: Active
[2]
  solubility kinetic: 3 µM (≈ 1.16 µg/mL)
[3]
  EC50: 130 nM
[4]
  microsomal CLint at 1 µM: 51 µL/min/mg
[5]
  microsomal CLint at 1 µM: 59 µL/min/mg
[6]
  microsomal CLint at 1 µM: 33 µL/min/mg
[7]
  concentration at 1 h: 108 nM
[8]
  concentration at 1 h: 492 nM
[9]
  concentration at 1 h: 1930 nM
[10]
  concentration at 1 h: 104 nM
[11]
  concentration at 1 h: 417 nM
[12]
  concentration at 1 h: 1260 nM
[13]
  Kp at 1 h: 1.05
[14]
  Kp at 1 h: 1.17
[15]
  Kp at 1 h: 1.53

## Cc1ccc(CC2CCN(C(=O)NC(=O)c3ccc4c(ccn4C)c3)CC2)cc1
[16]; Flp-In-293
  Activity: 37%

## Cc1ccc(OC2CCN(C(=O)C(=O)Nc3ccc4c(ccn4C)c3)CC2)cc1
[1]
  Activity: Active
[3]
  EC50: 120 nM
[7]
  concentration at 1 h: 120 nM
[8]
  concentration at 1 h: 297 nM
[9]
  concentration at 1 h: 1290 nM
[10]
  concentration at 1 h: 63 nM
[11]
  concentration at 1 h: 170 nM
[12]
  concentration at 1 h: 653 nM
[13]
  Kp at 1 h: 1.95
[14]
  Kp at 1 h: 1.74
[15]
  Kp at 1 h: 1.96

## Cc1ccc(OC2CCN(C(=O)C(=O)Nc3ccc4c(ccn4C)c3)C2)cc1 (configuration not stated)
[16]; Flp-In-293
  Activity: 25%

## Cc1ccc(OC2CCCN(C(=O)C(=O)Nc3ccc4c(ccn4C)c3)CC2)cc1 (configuration not stated)
[17]
  Activity: 13%

## Cc1ccc(CN2CCN(C(=O)C(=O)Nc3ccc4[nH]c(C)c(C)c4c3)CC2)cc1
[18]
  Activity: Toxic
[2]
  solubility kinetic: 23 µM (≈ 9.3 µg/mL)
[4]
  microsomal CLint at 1 µM: 13 µL/min/mg
[5]
  microsomal CLint at 1 µM: 56 µL/min/mg
[6]
  microsomal CLint at 1 µM: 151 µL/min/mg
[19]
  Activity: Toxic
[20]
  Activity: Toxic
[21]
  Activity: Toxic
[22]
  Activity: Toxic
[23]
  Activity: Toxic
[24]
  Activity: Toxic
[25]
  Activity: Toxic
[26]
  Activity: Toxic
[16]; Flp-In-293
  Activity: 10%
[27]
  Activity: Toxic

## O=C(NCc1ccc2[nH]ccc2c1)N1CC(COc2ccc(C(F)(F)F)cc2)C1
[18]
  Activity: Non-Toxic
[28]
  Kp at 35 min: 1.38
[29]
  Kp at 35 min: 1.4
[30]
  Kp at 35 min: 1.43
[31]
  Papp A→B at 2 h, 1 µM: 55 ×10⁻⁶ cm/s
[1]
  Activity: Active
[32]
  inhibition: > 50%
[33]
  Activity: Active
[7]
  concentration at 1 h: 673 nM
[8]
  concentration at 1 h: 2210 nM
[9]
  concentration at 1 h: 9920 nM
[10]
  concentration at 1 h: 647 nM
[11]
  concentration at 1 h: 2270 nM
[12]
  concentration at 1 h: 9470 nM
[13]
  Kp at 1 h: 1.04
[14]
  Kp at 1 h: 0.99
[15]
  Kp at 1 h: 1.06
[34]
  concentration at 35 min: 1010 nM
[35]
  concentration at 35 min: 3110 nM
[36]
  concentration at 35 min: 11100 nM
[37]
  concentration at 35 min: 746 nM
[38]
  concentration at 35 min: 2220 nM
[39]
  concentration at 35 min: 8020 nM
[19]
  Activity: Non-Toxic
[20]
  Activity: Non-Toxic
[21]
  Activity: Non-Toxic
[22]
  Activity: Non-Toxic
[23]
  Activity: Non-Toxic
[24]
  Activity: Non-Toxic
[25]
  Activity: Non-Toxic
[26]
  Activity: Non-Toxic
[40]
  Activity: Active
[27]
  Activity: Non-Toxic
[41]
  inhibition: > 50%
[42]
  inhibition: > 50%
[43]
  minimal effective dose: 1 mg/kg
[44]
  minimal effective dose: 1 mg/kg

## Cc1ccc(O[C@H]2CC[C@@H](C(=O)NCc3ccc4c(ccn4C)c3)CC2)cc1
[17]
  Activity: 16%

## Cc1ccc(CN2CCN(C(=O)C(=O)Cc3ccc4c(ccn4C)c3)CC2)cc1
[16]; Flp-In-293
  Activity: 7%

## Cn1ccc2cc(NC(=O)C(=O)c3cnn(Cc4ccc(Cl)cc4)c3)ccc21
[2]
  solubility kinetic: 3 µM (≈ 1.18 µg/mL)
[16]; [45]
  Activity: 52%

## Cc1ccc(CN2CCN(C(=O)C(=O)Nc3ccc4c(c3)c(C)cn4C)CC2)cc1
[18]
  Activity: Toxic
[2]
  solubility kinetic: 5 µM (≈ 2.02 µg/mL)
[3]
  EC50: 920 nM
[4]
  microsomal CLint at 1 µM: 17 µL/min/mg
[5]
  microsomal CLint at 1 µM: 140 µL/min/mg
[6]
  microsomal CLint at 1 µM: 198 µL/min/mg
[19]
  Activity: Toxic
[20]
  Activity: Toxic
[21]
  Activity: Toxic
[22]
  Activity: Toxic
[23]
  Activity: Toxic
[24]
  Activity: Toxic
[25]
  Activity: Toxic
[26]
  Activity: Toxic
[27]
  Activity: Toxic

## Cc1ccc(OC2CN(C(=O)C(=O)Nc3ccc4c(ccn4C)c3)C2)cc1
[16]; [45]
  Activity: 47%

## Cc1ccc(CN2CCC(C(=O)NCc3ccc4c(ccn4C)c3)CC2)cc1
[16]; Flp-In-293
  Activity: 12%
